For data set [1] the following is noted: cited from earlier work. An excerpt: In this study, we aimed to evaluate the feasibility of delivering a naked peptide fused with a cell-penetrating peptide (CPP) to the heart via the lung-to-heart route without encapsulation in NPs. CPPs, which are the peptide sequences enriched in arginine and lysine residues, facilitate the translocation of hydrophilic macromolecules such as proteins and peptides across cellular membranes. The specific CPP used in this study is a tandem repeat of NP2 (dNP2), a sequence derived from the human novel LZAP-binding protein (NLBP). Compared to TAT, the most widely used CPP originated fro ...

The test system of data set [2] is C57/Bl6 mice, myocardial infarction. As to the kind of experiment: Myocardial infarction model: hemodynamic analysis (PV loops). It counts as in vivo. The conditions noted are these: 200 nmoles IT 3 h prior to MI, 24 h post-MI, n = 5~8 per group. Here is the method:
Figure 3 Delivery of dNP2-SE via IT injection preserves cardiac contractility upon MI. Hemodynamic analyses were performed 24 h post-MI to measure cardiac contractility. (A) Representative PV loops are shown. (B) End-systolic pressure–volume relationship (ESPVR), dp/dt max (mmHg), and dp/dt min (mmHg) are shown. […] Bar represents the mean ± SEM.
(§1) The left side of the chest was shaved, and an intubation tube was inserted into the trachea. An incision was made in the 4th intercostal space, and the muscles were separated with scissors. The pericardium was gently removed. MI was induced by ligation of the left anterior descending (LAD) artery using a 7–0 black silk suture. The lower region of the artery turned pale immediately after ligation. The chest was sutured with 4–0 black silk. The same surgical procedure, without LAD ligation, was performed for the sham operation.
An incision was made in the abdominal wall to expose the abdominal cavity. The diaphragm was carefully separated from the ribs to avoid bleeding during the incision procedures. The xiphoid process was lifted, and the diaphragm was pulled down and fixed to secure the site. The pericardium was then removed. A small puncture was made in the left ventricle using an insulin syringe, and a probe was inserted through the puncture (AD instruments, Dunedin, New Zealand). Data analysis was performed using LabChart 8 (AD instruments, New Zealand).

Data set [3] has the same test system. In words: Myocardial infarction model: TUNEL staining of heart sections. It is filed as in vivo. Particulars: 200 nmoles IT 3 h prior to MI; 24 h post-MI; LV free wall; n = 3~4 per group. The protocol: Figure 2 Delivery of dNP2-SE via IT injection exerts cardio-protective effects upon MI. (A) Experimental scheme. A total of 200 nmol dNP2-SE or PBS was delivered via IT injection to adult (9-week-old) C57/Bl6 mice. MI was induced by LAD ligation 3 h post-injection. Hearts were harvested and analyzed 24 h post-MI. (B) Hearts were sectioned and stained with hematoxylin and eosin (H&E) or Picro Sirius Red. Representative images are shown. The LV chamber area was traced (shown in blue lines) and quantitated. The thickness of the LV free wall was also measured (shown in straight black lines). (C,D) LV chamber area and LV free wall thickness are presented as a graph. n = 6~7 per group; one-way ANOVA; *** p < 0.001. Bar represents the mean ±SEM. […] Bar represents the mean ±SEM. (F) TUNEL staining of the heart sections was performed using the DeadEnd Fluorometric TUNEL System. Apoptotic DNA fragmentation was labeled with fluorescein-12-dUTP (green). Nuclei were stained with Hoechst 33342 (blue). Representative images are shown. […] Bar represents the mean ± SEM. […]
The TUNEL assay was performed following the manufacturer’s instructions (DeadEnd Fluorometric TUNEL System, Promega, […], USA). […] Apoptotic signals and nuclear signals in the LV region were counted using cellSens TruAI 4.3 software (OLYMPUS, Tokyo, Japan), and the percentage of TUNEL-positive cells was calculated.

Data set [4] has as its target T1, PP1cα-PPP1R3A-PLN complex (Mus musculus, UniProt P62137).
T1 construct: from tissue; host or cells: mouse heart (C57BL/6, after MI, PBS- or dNP2-SE-injected)
As to the kind of experiment: Immunoprecipitation of heart lysates with anti-PP1cα antibodies. The conditions noted are these: heart lysates of MI mice given 200 nmoles IT, IP with anti-PP1cα. An excerpt:
(§2) Figure 5 Inhibitory mechanism of dNP2-SE on the PP1cα-PPP1R3A-PLN complex. (A) Protein lysates shown in Figure 4 were subjected to immunoprecipitation with anti-PP1cα antibodies and blotted with antibodies against PLN, PPP1R3A, and PP1cα (upper three rows). Inputs were also blotted with antibodies against PLN, PPP1R3A, and PP1cα (lower three rows). (B) Biotin-dNP2-SE was delivered to the normal heart via IT injection. Heart lysates were obtained, precipitated with streptavidin, and blotted with PP1cα, PPP1R3A, and PLN. Inputs were also blotted.
Immunoprecipitation was performed by adding 1 µg of the corresponding antibody to 1 mg of lysate. The mixture was gently inverted on a rotator overnight at 4 °C. After the primary antibody incubation, 30 µL of protein A-conjugated magnetic beads (88845, Thermo Fisher, Waltham, MA, USA) were added and incubated for 1 h to bind with the antibody. To isolate the protein–antibody–bead complex from the lysate, the mixture was centrifuged at 3000 rpm for 3 min at 4 °C and washed 4 times with lysis buffer. As a control for the precipitates, 2% of the initial protein amount used for pulldown was prepared as input. The collected complexes and inputs were used for western blots.

Data set [5] concerns the target T2, PPP1R3A (Mus musculus, UniProt Q99MR9).
T2 construct: from tissue; host or cells: normal mouse heart after IT injection of biotin-dNP2-SE
T2 sequence (Q99MR9 1-1089): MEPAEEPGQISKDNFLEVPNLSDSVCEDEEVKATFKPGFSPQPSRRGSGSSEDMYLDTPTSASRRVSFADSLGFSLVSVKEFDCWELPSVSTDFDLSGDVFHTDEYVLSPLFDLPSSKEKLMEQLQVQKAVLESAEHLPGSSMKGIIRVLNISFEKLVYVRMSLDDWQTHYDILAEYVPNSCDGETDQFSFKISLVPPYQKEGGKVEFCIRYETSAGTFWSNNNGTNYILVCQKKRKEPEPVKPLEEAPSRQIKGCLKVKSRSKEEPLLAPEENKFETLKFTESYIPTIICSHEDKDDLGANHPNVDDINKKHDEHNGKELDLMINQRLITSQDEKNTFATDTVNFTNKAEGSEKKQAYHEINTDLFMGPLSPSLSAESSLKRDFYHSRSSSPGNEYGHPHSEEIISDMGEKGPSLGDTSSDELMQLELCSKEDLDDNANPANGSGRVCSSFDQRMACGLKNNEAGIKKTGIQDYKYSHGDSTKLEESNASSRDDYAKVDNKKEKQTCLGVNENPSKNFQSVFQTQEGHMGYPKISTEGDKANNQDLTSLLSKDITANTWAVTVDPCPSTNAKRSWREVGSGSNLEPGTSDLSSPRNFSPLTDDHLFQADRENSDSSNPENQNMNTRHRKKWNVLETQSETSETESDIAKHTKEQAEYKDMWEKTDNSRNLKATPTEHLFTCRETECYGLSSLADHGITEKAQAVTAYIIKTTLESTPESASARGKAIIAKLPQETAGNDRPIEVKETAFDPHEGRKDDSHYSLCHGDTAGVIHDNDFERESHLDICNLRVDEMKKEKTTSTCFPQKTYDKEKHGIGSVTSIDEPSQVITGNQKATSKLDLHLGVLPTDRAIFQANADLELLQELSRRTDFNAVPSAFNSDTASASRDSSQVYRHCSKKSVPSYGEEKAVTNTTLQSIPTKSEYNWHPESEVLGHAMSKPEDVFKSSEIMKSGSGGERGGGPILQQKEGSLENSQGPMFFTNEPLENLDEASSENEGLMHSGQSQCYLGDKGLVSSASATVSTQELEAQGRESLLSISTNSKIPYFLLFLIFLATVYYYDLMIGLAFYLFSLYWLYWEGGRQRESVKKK
As to the kind of experiment: Streptavidin precipitation of biotin-dNP2-SE from heart lysates, blot for PPP1R3A. The conditions noted are these: biotin-dNP2-SE delivered to the normal heart via IT injection. It is filed as binding, mice.
Excerpt: as §2

Data set [6] concerns the target T3, PP1cα (Mus musculus, UniProt P62137).
T3 construct: from tissue; host or cells: normal mouse heart after IT injection of biotin-dNP2-SE
In words: Streptavidin precipitation of biotin-dNP2-SE from heart lysates, blot for PP1cα. It is filed as binding, mice. Particulars: biotin-dNP2-SE delivered to the normal heart via IT injection.
Excerpt: as §2

Data set [7] has as its system SERCA2a, α-SMA, phospho-PLN (S16), PP1cα, PPP1R3A in heart. As to the kind of experiment: Myocardial infarction model: western blotting of heart lysates. It is filed as in vivo, mice. Particulars: 200 nmoles IT 3 h prior to MI, 24 h post-MI, western blot, n = 3 per group. From the text: Figure 4 Delivery of dNP2-SE via IT injection prevents molecular abnormalities upon MI. (A) Protein lysates obtained from the hearts shown in Figure 2 and Figure 3 were subjected to western blotting. Antibodies against SERCA2a, α-SMA, phospho-PLN, PLN, PP1cα, and PPP1R3A were used. β-actin was used as a loading control. (B) The ratio of phosphorylated PLN over PLN is shown. […] Bar represents the mean ± SEM.
A general note: A western blot detects proteins with antibodies after separation by electrophoresis.

The test system of data set [8] is C57/Bl6 mice, myocardial infarction. In words: Myocardial infarction (LAD ligation) model: histology and heart morphology. It counts as in vivo. The conditions noted are these: 200 nmoles IT 3 h prior to MI, vs PBS-injected. Here is the method: Figure 2 Delivery of dNP2-SE via IT injection exerts cardio-protective effects upon MI. (A) Experimental scheme. A total of 200 nmol dNP2-SE or PBS was delivered via IT injection to adult (9-week-old) C57/Bl6 mice. MI was induced by LAD ligation 3 h post-injection. Hearts were harvested and analyzed 24 h post-MI. (B) Hearts were sectioned and stained with hematoxylin and eosin (H&E) or Picro Sirius Red. Representative images are shown. The LV chamber area was traced (shown in blue lines) and quantitated. The thickness of the LV free wall was also measured (shown in straight black lines). (C,D) LV chamber area and LV free wall thickness are presented as a graph. n = 6~7 per group; one-way ANOVA; *** p < 0.001. Bar represents the mean ±SEM. […] Bar represents the mean ±SEM. (F) TUNEL staining of the heart sections was performed using the DeadEnd Fluorometric TUNEL System. Apoptotic DNA fragmentation was labeled with fluorescein-12-dUTP (green). Nuclei were stained with Hoechst 33342 (blue). Representative images are shown. […] Bar represents the mean ± SEM.
as §1
Harvested heart tissues were fixed in 4% PFA for 24 h at 4 °C and then washed with tap water. After discarding the tap water, the tissues were sequentially incubated in 70%, 80%, 95%, and 100% ethanol for 1 h each to dehydrate. Following the ethanol incubations, the tissues were incubated in xylene for 1 h and 20 min and then embedded in paraffin at 60 °C for 4 h. Paraffin-embedded tissues were sliced into 8 µm sections. After rehydration, the sections were used for histology as follows:
H&E staining: The sections were incubated in hematoxylin (26041-06, Electron Microscopy Science, Hatfield, PA, USA) for 30 s to stain the nuclei, followed by a 10 min wash in running tap water to remove excess stain. Subsequently, the sections were incubated in eosin (EOYA-05-OT-1L, Biognost, Zagreb, Croatia) for 2 min to stain the cytoplasm.
Picro Sirius staining: The sections were incubated for 60 min in Picro Sirius Red solution (ab150681, Abcam, Waltham, MA, USA), rinsed twice with 0.5% acetic acid, and then rinsed with absolute alcohol. H&E and Picro Sirius-stained slides were observed using a slide scanner (Aperio CS2, Leica, Germany).

The mark [9] stands for this setting: 24 h post-MI, n = 6~7 per group.

These results are taken from paper PMC11942360, “Intratracheal Delivery of a Phospholamban Decoy Peptide Attenuates Cardiac Damage Following Myocardial Infarction” (International Journal of Molecular Sciences, 2025).

T1 sequence (P62137 whole entry, one chain of several): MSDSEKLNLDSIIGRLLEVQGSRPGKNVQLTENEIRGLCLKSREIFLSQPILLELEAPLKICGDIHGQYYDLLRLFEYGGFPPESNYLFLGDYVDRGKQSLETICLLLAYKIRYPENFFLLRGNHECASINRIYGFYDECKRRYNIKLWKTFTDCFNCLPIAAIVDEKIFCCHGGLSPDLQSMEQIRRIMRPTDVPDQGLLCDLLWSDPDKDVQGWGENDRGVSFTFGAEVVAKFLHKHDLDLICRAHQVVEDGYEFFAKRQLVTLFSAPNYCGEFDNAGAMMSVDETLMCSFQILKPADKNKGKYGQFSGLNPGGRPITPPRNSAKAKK
T3 sequence (P62137 whole entry): as the sequence (P62137 whole entry, one chain of several) above

Regarding KIKKVKKKGRKGSKIKKVKKKGRKG [dNP2], the “Toxicity compared to TAT” value in data set [1] is given as “significantly lower toxicity than TAT”.
In the case of “Ac-KIKKVKKKGRKGSKIKKVKKKGRKGRAETIEMPQ-NH2 [dNP2-SE]”, in data set [2], the “PV loop pattern under MI” value is “indistinguishable from that of sham-operated hearts”. For the same substance, in data set [2] (vs PBS-injected), the “Ejection fraction (EF) under MI” value is listed as “significantly ameliorated”, the “End-systolic pressure–volume ratio (ESPVR) under MI” value is reported as “significantly normalized”, the “LV end-diastolic volume (Vmax) under MI” value is “significantly ameliorated” and the “LV end-systolic volume (Vmin) under MI” value is “significantly ameliorated”. Besides, in data set [2] (vs PBS-injected), the “dP/dt max under MI” value is listed as “significantly normalized” and the “dP/dt min under MI” value is “significantly normalized”. Moreover, the “Increase in apoptotic cell populations (TUNEL-positive cells) under MI” value in data set [3] is reported as “effectively prevented”. In data set [4], the “Interactions between PP1cα and PPP1R3A (co-immunoprecipitation)” value is “not altered”. The “Physical interactions between PP1cα and PLN (co-immunoprecipitation)” value in data set [4] (vs PBS-injected) is “completely abolished”. For the same substance, the “Interaction with PPP1R3A (streptavidin precipitation, western blot)” value in data set [5] is reported as “only weakly interacts”. In addition, the “Binding to PP1cα (streptavidin precipitation, western blot)” value in data set [6] is “strongly binds”. Also, the “Phosphorylation of PLN at S16 (p-PLN) in heart under MI” value in data set [7] (p-PLN/PLN) is on record as “fully preserved”. Moreover, in data set [7], the “Expression level of PP1cα in heart” value is given as “remained unchanged”, the “MI-induced increase in PPP1R3A expression in heart” value was “prevented”, the “MI-induced increase of α-smooth muscle actin (α-SMA) in heart” value is on record as “attenuated” and the “MI-induced reduction of SERCA2a expression in heart” value was “attenuated”. Besides, in data set [8] (setting [9]), the “Heart weight-to-body weight ratio under MI” value is “normalized”, the “LV chamber area under MI” value is on record as “remained normal” and the “LV free wall thickness under MI” value was “significantly preserved”. Moreover, in data set [8] (hearts 24 h post-MI), the “Collagen deposition (Picro Sirius staining) under MI” value was “markedly reduced”.
